Tests used:
[1] = system: BL6 clone of B16 melanoma cell line; experiment: Lung colony formation after i.v. injection of BL6 cells preincubated with oligosaccharide; type: in vivo, C57/BL mice; details: for reductions of metastatic colonies in lung: BL6 cells preincubated with the sugar, then intravenous injection, 0.1 M, 37°C, 10 minutes in the majority of experiments; for total colony number reduced to % of control value: second independent series (Figure 1): preincubation with 0.1 M, 2 x 10^4 cells i.v., counted at 21 days
Description: The highly metastatic BL6 clone of B16 melanoma cell line was obtained originally from Dr. Jean Starkey (Montana State Univ., Bozeman, MT), and clones were reselected in syngeneic C57/BL mice according to their metastatic potential. C57/BL mice were maintained in plastic cages under filtered air atmosphere and provided with water and food pellets ad lib. Cells were cultured in RPMI 1640 supplemented with 2 mM glutamine and 10% fetal calf serum (FCS), and detached with phosphate buffered saline (PBS) containing 2 mM EDTA. Viability was tested by trypan blue exclusion test.
A suspension of BL6 cells (1-3 x 10⁶ cells/ml RPMI 1640 medium) was prepared and aliquots were incubated in the presence or absence of various oligosaccharides at various concentrations, at 37°C for 5-10 minutes. Following incubation, typically, 3 x 10⁴ or 2 x 10⁴ cells (with or without oligosaccharide pretreatment) per 200 µl were injected via tail vein into 8-week-old female mice. After 18-21 days, mice were killed, lungs were fixed in 10% formaldehyde in PBS (pH 7.4), and tumor cell colonies were counted under a dissecting microscope, thus providing background values of metastatic melanoma colony number in lung under these conditions. Data on number and size of colonies were statistically treated by the analysis of variance (ANOVA) procedure. Colonies with a diameter of 1 mm or greater were considered large-size and those with a diameter less than 1 mm were considered small-size.
(§1) For one experiment, BL6 cells were incubated with various concentrations of lactose, lacto-N-tetrose (Galβ1→3GlcNAcβl→3Galβ1→4GLc), methyl β-D-lactoside, or phenyl β-D-thiolactoside for various durations. In the majority of experiments, a concentration of 0.1 M was used and cells were incubated at 37°C for 10 minutes, separated from sugar-containing medium by mild centrifugation at 400 x g for 10 minutes, resuspended in RPMI 1640, and injected (3 x 10⁴ cells in 0.2 ml suspension) via tail vein. For some experiments, 2 x 10⁴ cells were injected and colonies were counted at 21 days. Viability and cell growth ability of BL6 cells after incubation in various sugar solutions were tested by trypan blue exclusion test, and by plating in RPMI 1640 culture under normal conditions in vitro, as well as by subcutaneous inoculation in age-matched C57/BL mice in order to test tumor growth.

GMP-140 = target: T1, GMP-140 (Homo sapiens, UniProt P16109); experiment: Binding of platelets to fluorescent polystyrene beads coated with GSL (flow cytometry); details: for Binding index, Ratio (Activated/ Non-activated): ratio of binding index of activated to non-activated platelets; for Binding index, Activated platelets: thrombin-activated platelets, GSL-coated sulfate-containing polystyrene beads, MFI relative to non-GSL-coated beads, means of four experiments
T1 sequence (P16109 42-830): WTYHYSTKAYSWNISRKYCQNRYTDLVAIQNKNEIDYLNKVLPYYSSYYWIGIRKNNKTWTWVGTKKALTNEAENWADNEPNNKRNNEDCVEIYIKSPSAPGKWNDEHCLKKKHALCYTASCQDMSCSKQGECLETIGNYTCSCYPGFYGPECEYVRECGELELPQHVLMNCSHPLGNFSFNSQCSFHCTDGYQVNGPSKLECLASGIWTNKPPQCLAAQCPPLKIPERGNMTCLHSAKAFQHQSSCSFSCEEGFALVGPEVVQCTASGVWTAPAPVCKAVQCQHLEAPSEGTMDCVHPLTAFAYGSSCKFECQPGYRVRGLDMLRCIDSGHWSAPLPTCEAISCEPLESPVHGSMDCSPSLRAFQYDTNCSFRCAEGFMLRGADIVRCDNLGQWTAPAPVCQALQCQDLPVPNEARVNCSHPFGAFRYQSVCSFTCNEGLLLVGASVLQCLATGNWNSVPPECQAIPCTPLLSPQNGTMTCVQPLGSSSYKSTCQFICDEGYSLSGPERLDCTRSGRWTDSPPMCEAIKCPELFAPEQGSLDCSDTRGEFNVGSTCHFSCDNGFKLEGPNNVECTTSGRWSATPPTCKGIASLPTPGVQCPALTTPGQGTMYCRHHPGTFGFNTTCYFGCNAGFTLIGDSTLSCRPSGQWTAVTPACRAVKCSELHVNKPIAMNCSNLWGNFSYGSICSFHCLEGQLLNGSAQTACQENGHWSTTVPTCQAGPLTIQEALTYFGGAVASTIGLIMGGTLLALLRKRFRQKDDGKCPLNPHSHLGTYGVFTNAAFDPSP
Description: Fluorescent plastic (e.g. polystyrene) beads (diameter ≈ 0.5 µm) are coated with GSL. GSLs are known to be strongly adsorbed on such beads, which allows construction of fluorescent probes containing specific GSLs. Platelets (activated or non-activated) are incubated with such GSL-coated beads, followed by determination of platelet fluorescence intensity by flow cytometry.
Platelets were isolated from"platelet-rich plasma"obtained from the Oregon Red Cross (Portland, OR), and contaminating red blood cells were removed by centrifugation at 80xg for 10 min. Platelets were centrifuged at 300xg for 10 min, and suspended in Tyrode's buffer (pH 6.5) containing 22 mM citrate buffer with 0.35% bovine serum albumin (BSA). Platelet suspension (1x10⁸/ml) was incubated (pH 7.2, 37°C, 5 min) after addition of thrombin (final concentration 1 U/ml). The mixture was then incubated at 37°C for 10 min without stirring. Thrombin-activated platelets were fixed with an equal volume of 2% formaldehyde in phosphate-buffered saline (PBS), pH 7.2, and washed 2x with PBS containing 1% BSA.
Activated and non-activated platelets were fixed with paraformaldehyde in Ca²⁺-free PBS, pH 7.2, washed 2x with Ca^2a+-containing PBS with 1% BSA, resuspended in CA^2a+-PBS with 1% BSA and 0.1% azide, and the number of platelets adjusted to ≈1x10⁹/ml. The cell suspension was stored at 4°C and the binding assay performed within 24 hr.
Fluorescent polystyrene latex beads were obtained from Molecular Probe, Inc., Eugene, OR. They were yellow-green fluorescent beads with a sulfate group at the surface, diameter ≈0.5 µm (actually 0.486 µm). 1x10⁹ beads in 30 µl ETOH were added to 10 µg of GSL solution in 200 µl C=M, mixed well, and dried under an N₂ stream. The residue was resuspended in 200 µl ethanol, sonicated briefly, and dried under an N₂ stream. […]
20 µl of platelet (non-activated or activated) suspension ... paraformaldehyde-fixed -- containing ≈2x10⁷ platelets was mixed with 10 µl of fluorescent GSL-coated beads -- containing ≈2x10⁷ beads, mixed well, […] allowed to stand at 37°C for 30 min. The platelet suspension was mixed with 200 µl Ca²⁺-PBS and analyzed by flow cytometry (EPICS Profile, Coulter Cytometry, Hialeath, FL).
Flow cytometric analyses of platelets alone and beads alone were performed for a gating set to include most signals produced by platelets by excluding signals produced by free beads. The binding index (BI) was calculated as mean fluorescence intensity (MFI) of platelets incubated with fluorescent GSL-coated beads, divided by MFI of platelets incubated with fluorescent non-GSL-coated (control) beads. […]

BL6 cells = experiment: In vitro cell growth and thymidine incorporation after incubation with sugar; type: cell-based, mouse
Description: as §1

[2] = system: melanoma cell (BL6) adhesion on endothelial cells (HuVEC); experiment: Melanoma cell adhesion on endothelial cells; type: cell-based, mouse; details: Figure 5
Source text: (§2) Figure 5 graphically illustrates the melanoma cell (BL6) adhesion on LacCer (Panel A) and on endothelial cells (HuVEC) (Panel B) are inhibited by LacCer and GM3.
GM3 interacts with LacCer, which is highly expressed on endothelial cells. The order of adhesion of the B16 variants onto LacCer-coated solid phase or onto endothelial cells was also in the same order as their metastatic potential. In contrast, integrin-dependent adhesion of the B16 variants was approximately equal for BL6, F10, and F1 (see Figure 4).

B16 melanoma cells = experiment: Lung colony formation, oligosaccharide injected i.p. before i.v. inoculation of tumor cells; type: in vivo, C57/BL mice; details: 1 ml of 0.25 M or 0.5 M i.p., 10 minutes before i.v. B16 melanoma cells; colonies counted 19 days later (Figure 2)
Description: Figure 2 graphically illustrates the effect of prior administration of methyl β-D-lactoside on the number and size of lung colony deposits of BL6 cells. Methyl β-D-lactoside (1 ml dosage) was injected intraperitoneally into C57/BL mice. After 10 minutes, B16 melanoma cells were injected intravenously. Lung colonies were counted and sized at 19 days. Group A represents control animals (not administered methyl β-D-lactoside) and groups B and C represent animals injected with 0.25 M and 0.5 M methyl β-D-lactoside, respectively. For each group, column 1 represents the total number of colonies, column 2 the number of colonies with diameter > 1 mm, and column 3 the number of colonies with diameter < 1 mm. Number of experiments is expressed as "n".
In a separate experiment, the effect of methyl β-D-lactoside on melanoma cell metastasis was determined after administration of the oligosaccharide, followed by inoculation with tumor cells. Specifically, a one ml dosage of methyl β-D-lactoside (at a concentration of 0.25 M or 0.5 M) was injected intraperitoneally in mice. After 10 minutes, B16 melanoma cells were injected intravenously. Lung colonies were counted 19 days later.

[3] = system: melanoma cell (BL6) adhesion on LacCer; experiment: Melanoma cell adhesion on LacCer-coated solid phase; type: cell-based, mouse; details: Figure 5, Panel A
Source text: Figure 4 graphically illustrates that melanoma cell adhesion on LacCer is based on GM3-LacCer interaction. The order of metastatic potential is BL6>F10>F1>>WA4.
as §2

Binding index, Ratio (Activated/ Non-activated) (GMP-140) | Binding index, Activated platelets (GMP-140) | Compound | reductions of metastatic colonies in lung [1] [%] | total colony number reduced to % of control value [1] [%] | effect on cell number increase (BL6 cells) | effect on thymidine incorporation (BL6 cells) | also measured
 |  | CC(=O)N[C@H]1[C@H](O[C@H]2[C@@H](O)[C@@H](CO)O[C@@H](O[C@H]3[C@H](O)[C@@H](O)C(O)O[C@@H]3CO)[C@@H]2O)O[C@H](CO)[C@@H](O)[C@@H]1O[C@@H]1O[C@H](CO)[C@H](O)[C@H](O)[C@H]1O (stereo partly drawn) [lacto-N-tetrose, Galβ1→3GlcNAcβl→3Galβl→4Glc] | 36 |  |  |  | 
0.7 ± 0.2 | 0.8 ± 0.2 | NeuAcα2→3Galβ1→4GlcNAcβ1→3Galβ1→R [SPG, reference compound] |  |  |  |  | 
 |  | OC[C@H]1O[C@@H](O[C@H]2[C@H](O)[C@@H](O)C(O)O[C@@H]2CO)[C@H](O)[C@@H](O)[C@H]1O (stereo partly drawn) [Lactose] | 26 |  |  |  | 
 |  | OC[C@H]1O[C@@H](O[C@H]2[C@H](O)[C@@H](O)[C@H](Sc3ccccc3)O[C@@H]2CO)[C@H](O)[C@@H](O)[C@H]1O [phenyl β-D-thiolactoside] |  | 50 | slight in vitro stimulatory effect | slight in vitro stimulatory effect | 
 |  | CO[C@@H]1O[C@H](CO)[C@@H](O[C@@H]2O[C@H](CO)[C@H](O)[C@H](O)[C@H]2O)[C@H](O)[C@H]1O [methyl β-D-lactoside] |  | 35 | slight in vitro stimulatory effect | slight in vitro stimulatory effect | B16 melanoma adhesion on endothelial cells [2]: inhibited; reduction of metastatic lung colony number compared to control ([1]; BL6 cells treated with 0.005 M): 8%; reduction of metastatic lung colony number compared to control ([1]; BL6 cells treated with 0.01 M): 16%; reduction of metastatic lung colony number compared to control ([1]; BL6 cells treated with 0.1 M): 43%; lung metastatic colony formation (B16 melanoma cells): significant reduction
0.7 ± 0.5 | 1.0 ± 0.1 | NeuAcα2→3Galβl→4Glcβl→Cer [GM3] |  |  |  |  | melanoma cell (BL6) adhesion on LacCer [3]: inhibited

Reference: patent publication EP0521692A2, “Inhibition of tumor cell metastasis potential and invasiveness by chemically-defined oligosaccharides, their derivatives, mimetics and antibodies directed to them” (The Biomembrane Institute, priority 1991, dated 1993)
